Measured values published in US20110098180A1, “Herbicide-Resistant Plants, And Polynucleotides And Methods For Providing Same” (United States Department of Agriculture, priority 2002, published 2011).

Key:
[1] = target: hydrilla PDS Arg^304 → Threonine, His-tagged (Hydrilla verticillata, UniProt Q66PY0, R304T); test: Cross-resistance testing, His-tagged column-purified PDS (Table 2A); format: biochemical; conditions: Threonine at 304; His-tagged, column-purified PDS; read-out: I50
Description: (§1) In further cross-resistance testing similar to that described above, an alternative production and purification protocol was used in the preparation of the mutant PDS proteins, and the activity of the proteins was again tested using the same testing protocol. The alternative approach utilized His-tagging and column purification of the mutant PDS protins. The results are shown in. Table 2A below.
(§2) The plasmid pHy4ATG5 was made by cloning the Phytoene Desaturase (pds) gene from Hydrilla verticillata, including 323 by upstream of the beginning of the putative mature protein, into the vector TOPO4 (Invitrogen, Carlsbad, Calif.): The 1-323 by region contained three potential start codons (ATG)(positions 1, 114 and 225 bp) in frame with pds. In order to express pds in bacteria, deletion clones were made for each of the three potential start codons with and without ATG. Only the results for possible origins of translation 1 and 225 by (named ORF and 3ORF) are reported here. pds was PCR amplified and subcloned into TOPO4 using pHy4ATG5 as template and the reverse primer RPDS—1849 (5′[…] 3′). The forward primers used were ORF (5′ […] 3′), ORF-ATG (5′ […] 3′), 3_ORF (5′[…] 3′) and 3_ORF-ATG (5′ […] 3′). The resulting plasmids were named pORF, pORF-ATG (minus ATG codon), p3ORF and p3ORF-ATG. The pds-containing EcoRI-fragments of these plasmids were subcloned into the EcoRI site of pRSETb vector (Invitrogen) for Histidine tagging and bacterial expression. The resulting constructs were pHy4SET, pHy4SET-ATG (minus ATG), p3ORFSET and p3ORFSET-ATG.
(§3) Plasmid p3ORF-ATG was later mutagenized at the amino acid 304 of pds to replace the amino acid Arginine (Arg) by Histidine (His), Threonine (Thr), Serine (Ser), or Cysteine (Cys), using the QuickChange™ Site-Directed Mutagenesis Kit of Stratagene (La Jolla, Calif.). Primers used to replace Arg by His were Hyd-His-For (5′[…] 3′) and Hyd-His-Rev (5′ […] 3′); to replace Arg by Thr we used primers Hyd-Thr-For (5′[…] 3′) and Hyd-Thr-Rev (5′[…] 3′); to replace Arg by Ser we used Hyd-Ser-For (5′[…] 3′) and Hyd-Ser-Rev (5′[…] 3′); and Arg was replaced by Cys using Hyd-Cys-For (5′[…] 3′) and Hyd-Cys-Rev (5′[…] 3′). Resulting plasmids were named: p3ORFHisSet-ATG, p3ORFThrSet-ATG, p3ORFSerSet-ATG and p3ORFCysSet-ATG.
(§4) All pRSET derived constructs were transformed into BL21(DE3)pLysS cells (Invitrogen), induced with IPTG for protein expression, and the His tag overproduced proteins analyzed by Western blot using Anti-HisG antibody (Invitrogen, cat. #R940-25).
(§5) When working with His-tagged PDS proteins expressed as described in Example 4, the purified protein used for testing was prepared as follows. BL21(DE3)pLysS cells were grown overnight in 500 ml Luria Broth (LB) supplemented with carbenicillin (100 mg/l) and cloramphenicol (60 mg/l) at 37° C., and induced with 0.3 mM isopropylthio-β-D-galactoside (IPTG) for 3 hrs. Cells were lysed using a French press (Spectronics Instrument) at 20,000 psi and overexpressed PDS was purified on a nickel activated Hitrap Chelating HP column according to the manufacturers instructions (Amersham Bioscience).
(§6) Generally, PDS protein fractions prepared as described above (Non-His-tagged and His-tagged) were mixed with a soluble fraction from phytoene-producing E. coli cells. For the phytoene producing cells, a plasmid construct containing the genes GGPP synthase and phytoene synthase from Erwinia uredovora, transformed into the appropriate E. coli strain, was used (see, Misawa et al., J. of Bacteriology 177:6575, 1995). This E. coli strain was separately cultured and lysed, and its soluble components collected (“the EB extract”) in a fashion similar to that described above for the PDS-producing cells.
(§7) His-tagged, purified proteins prepared as described above were transferred to the assay buffer on a PD10 column (Amersham Bioscience) and the concentration was adjusted to 100 μg/mL. […]

[2] = system: hydrilla PDS Arg^304 → Threonine, His-tagged; test: as above; format: biochemical, Hydrilla verticillata; conditions: Threonine at 304 relative to Arginine; Table 2A
Description: as §1, §2, §3, §4, §5, §6, §7

Chain of hydrilla PDS Arg^304 → Threonine, His-tagged (Hydrilla verticillata, UniProt Q66PY0, R304T) (Q66PY0 77-580 R304T): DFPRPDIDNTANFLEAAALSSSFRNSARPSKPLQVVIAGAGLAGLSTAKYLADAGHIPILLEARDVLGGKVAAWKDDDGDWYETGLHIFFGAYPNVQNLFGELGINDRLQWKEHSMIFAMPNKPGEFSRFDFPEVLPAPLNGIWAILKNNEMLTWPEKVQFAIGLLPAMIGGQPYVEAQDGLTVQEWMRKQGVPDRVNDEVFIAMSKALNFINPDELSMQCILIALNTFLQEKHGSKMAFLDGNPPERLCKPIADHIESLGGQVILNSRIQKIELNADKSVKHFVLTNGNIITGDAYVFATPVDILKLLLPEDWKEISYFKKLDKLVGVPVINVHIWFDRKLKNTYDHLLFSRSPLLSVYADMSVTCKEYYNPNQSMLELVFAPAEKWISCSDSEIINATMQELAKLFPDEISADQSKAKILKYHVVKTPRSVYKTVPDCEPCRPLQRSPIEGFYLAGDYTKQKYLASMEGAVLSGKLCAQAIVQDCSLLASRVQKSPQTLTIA

Compound | IC50 [1] | R/S [2]
CNc1cnn(-c2cccc(C(F)(F)F)c2)c(=O)c1Cl [Norflurazon] | 1510 µM | 30.0
CNC1=C(c2cccc(C(F)(F)F)c2)C(=O)C(c2ccccc2)O1 (stereo not shown) [Flurtamone] | 1780 µM | 5.9
CCC(Oc1ccc(F)c(C(F)(F)F)c1)C(=O)NCc1ccccc1 (stereo not shown) [Beflubutamid] | 106 µM | 1.5
O=C(Nc1ccc(F)cc1)c1cccc(Oc2cccc(C(F)(F)F)c2)n1 [Piconilafen, Picolinafen] | 60 µM | 0.2
O=C1C(Cl)C(CCl)CN1c1cccc(C(F)(F)F)c1 (stereo not shown) [Fluorochloridone] | 210 µM | 1.6
O=C(Nc1ccc(F)cc1F)c1cccnc1Oc1cccc(C(F)(F)F)c1 [Diflufenican] | 104 µM | 1.0
Fluridone |  | 7.8
